# Laboratory results as given in ChEMBL document CHEMBL1201862, “PubChem BioAssay data set” (2004).
#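 Tested at 5 concentrations; 48 h exposure; 96-well plates; endpoints linearly interpolated, else capped at highest concentration. Here, GI50 denotes the concentration required for 50% inhibition of growth.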 Calls of active or inactive are those of the source. No stated cut-off is given here; in the data, active = GI50 up to about 1.1 µM and inactive = higher.
# Experiments:
# Test in all cases: DTP human tumour cell line panel, 48 h
# SNB-75 = system: SNB-75
# TK-10 = system: TK-10
# OVCAR-5 = system: OVCAR-5
# NCI-H23 = system: NCI-H23
# K562 = system: K562
# NCI-H460 = system: NCI-H460
# HT-29 = system: HT-29
# 786-0 = system: 786-0
# SK-MEL-28 = system: SK-MEL-28
# U-251 = system: U-251
# A549 = system: A549
# OVCAR-8 = system: OVCAR-8
# COLO 205 = system: COLO 205
# EKVX = system: EKVX
# SK-MEL-2 = system: SK-MEL-2
# SK-OV-3 = system: SK-OV-3
# NCI-H226 = system: NCI-H226
# LOX IMVI = system: LOX IMVI
SMILES,GI50 (SNB-75),GI50 (TK-10),GI50 (OVCAR-5),GI50 (NCI-H23),GI50 (K562),GI50 (NCI-H460),GI50 (HT-29),GI50 (786-0),GI50 (SK-MEL-28),GI50 (U-251),GI50 (A549),GI50 (OVCAR-8),GI50 (COLO 205),GI50 (EKVX),GI50 (SK-MEL-2),GI50 (SK-OV-3),GI50 (NCI-H226),GI50 (LOX IMVI)
O=C1c2ccccc2-c2cccc3ccc(Cc4ccccc4)c1c23,6.53 µM (inactive),> 100 µM (inactive),> 100 µM (inactive),> 100 µM (inactive),37.6 µM (inactive),> 100 µM (inactive),> 100 µM (inactive),> 100 µM (inactive),> 100 µM (inactive),> 100 µM (inactive),> 100 µM (inactive),> 100 µM (inactive),> 100 µM (inactive),> 100 µM (inactive),> 100 µM (inactive),–,–,–
CN(C)CCCNc1ccnc2c([N+](=O)[O-])cccc12,–,> 100 µM (inactive),> 10 µM (inactive),14.6 µM (inactive),> 10 µM (inactive),15.5 µM (inactive),3.56 µM (inactive),22.2 µM (inactive),95.7 µM (inactive),30.2 µM (inactive),28.2 µM (inactive),20.7 µM (inactive),2.37 µM (inactive),10.5 µM (inactive),> 10 µM (inactive),3.85 µM (inactive),> 100 µM (inactive),19.5 µM (inactive)
N#C/N=C1\NCCC(=O)N1CCc1c[nH]c2ccccc12,> 100 µM (inactive),> 100 µM (inactive),–,> 100 µM (inactive),> 100 µM (inactive),–,> 100 µM (inactive),> 100 µM (inactive),> 100 µM (inactive),–,> 100 µM (inactive),> 100 µM (inactive),> 100 µM (inactive),> 100 µM (inactive),–,> 100 µM (inactive),> 100 µM (inactive),> 100 µM (inactive)
CN(C)CCC(/C=C/c1ccccc1)=N\Nc1ccc(Cl)cc1,4.31 µM (inactive),2.89 µM (inactive),1.08 µM (active),7.24 µM (inactive),2.21 µM (inactive),2.1 µM (inactive),3.86 µM (inactive),2.39 µM (inactive),12.8 µM (inactive),1.84 µM (inactive),2.52 µM (inactive),2.98 µM (inactive),4.31 µM (inactive),2.49 µM (inactive),2 µM (inactive),3.99 µM (inactive),–,1.59 µM (inactive)
O=C1/C(=N\O)S(=O)(=O)c2ccccc21,> 100 µM (inactive),> 100 µM (inactive),> 100 µM (inactive),–,> 100 µM (inactive),> 100 µM (inactive),92.7 µM (inactive),> 100 µM (inactive),–,> 100 µM (inactive),> 100 µM (inactive),> 100 µM (inactive),> 100 µM (inactive),–,> 100 µM (inactive),> 100 µM (inactive),> 100 µM (inactive),> 100 µM (inactive)
N=C(N)NS(=O)(=O)c1ccc(Nc2c3ccccc3nc3c(C(=O)Nc4ccc(S(N)(=O)=O)cc4)cccc23)cc1,42.1 µM (inactive),> 100 µM (inactive),> 100 µM (inactive),> 100 µM (inactive),33.3 µM (inactive),> 100 µM (inactive),> 100 µM (inactive),> 100 µM (inactive),> 100 µM (inactive),94.2 µM (inactive),> 100 µM (inactive),> 100 µM (inactive),> 100 µM (inactive),> 100 µM (inactive),42.5 µM (inactive),> 100 µM (inactive),–,28.2 µM (inactive)
